Assays:
[1] = tested on: MDCK cells; experiment: MTT cytotoxicity assay on MDCK cells; type: cell-based, canine; settings: Canis lupus familiaris, 100 μmol/L, 24 h, mean ± SD of three replicates, read-out: Growth Inhibition Rate (%)
Protocol: First, we used the MTT method to perform cytotoxicity of barbatic acid derivatives (1, 6a–6p′) on MDCK cells at the concentration of 100 μmol/L, and the results are shown in Table 1.
The MTT assay was used to evaluate the cytotoxicity of the target compounds on DMCK cells. Logarithmic-growth-phase DMCK cells were seeded in a 96-well plate (10^4 cells/well) and incubated in a cell culture incubator for 24 h. The culture medium was then removed and replaced with a drug-containing medium for the treatment groups (1, 6a–6p′, 100 μmol/L), normal saline for the control group, or hydrochlorothiazide (100 μmol/L) for the positive control group. Each well was treated with 100 µL of the respective solution and incubated for an additional 24 h. The culture medium was then removed and replaced with a DMEM solution containing 20 µL of MTT (5 mg/mL). After incubating for 4 h, the liquid in each well was removed and replaced with 150 µL of DMSO, which was shaken for 10 min to ensure thorough mixing. The absorbance at 490 nm was measured to determine the optical density (OD) of each well. Cell growth inhibition rate (%) = (ODBlank − ODExperimental)/ODBlank × 100%.

[2] = tested on: Ca^2+ transport, MDCK cells; experiment: In vitro litholytic activity: Ca^2+ transport inhibition, Transwell chamber with MDCK cells; type: cell-based, canine; settings: Canis lupus familiaris, 100 μmol/L, mean ± SD of three replicates, read-out: Transport Inhibition Rate (%) Ca^2+
Protocol: (§1) On the other hand, all compounds had little inhibitory effect on Ca^2+ transport. The structure–activity relationships (SARs) were also observed. […] On the other hand, the introduction of the benzyl group to the R^1 or R^2 of barbatic acid could not lead to more promising compounds, such as 6a, 6n, 6u, 6b′, and 6i′–p′.
(§2) Logarithmic-phase DMCK cells were inoculated in the upper chamber of a Transwell plate (4 × 10^4 cells/well). Then, 800 µL of complete culture medium was added to the lower chamber, and the cells were incubated for 24 h until they adhered to the wall. The resistance value of the upper chamber cells was measured one by one at 37 °C (R = (Rcell − Rblank) × 0.04π). When the resistance value of the upper chamber cells was ≥300 Ω cm^2, the upper chamber liquid was discarded for drug administration. A control group (given physiological saline) and an experimental group (1, 6a–6p′, 100 μmol/L) were set up, and 100 µL of each drug was administered per well, followed by continued incubation for 24 h. Then, the upper and lower chamber liquids were discarded, and 200 µL of CaC2O4 (30 mmol/L) solution was added to the upper chamber, and 800 µL of PBS solution was added to the lower chamber for continued incubation. At 0.5, 1, 2, and 3 h, 50 µL of the lower chamber liquid was taken and then tested using the Ca^2+ and C2O4^2− detection kits and the following detection methods. The transport inhibition rate (%) = (ODblank − ODexperimental)/ODblank × 100%.

[3] = tested on: C2O4^2− transport, MDCK cells; experiment: In vitro litholytic activity: C2O4^2− transport inhibition, Transwell chamber with MDCK cells; type: cell-based, canine; settings: for inhibition at 100 µM: Canis lupus familiaris, 100 μmol/L, MDCK cells in Transwell, mean ± SD of three replicates, read-out: Transport Inhibition Rate (%) C2O4^2−
Protocol: as §1, §2

[4] = tested on: Na^+ transport, MDCK cells; experiment: In vitro diuretic activity: Na^+ transport inhibition, Transwell chamber seeded with MDCK cells; type: cell-based, canine; settings: 100 μmol/L, MDCK cells in Transwell, mean ± SD of three replicates, negative = promotion; for inhibition at 100 µM: Canis lupus familiaris, MDCK, read-out: Transport Inhibition Rate (%) Na^+
Excerpt: (§3) The traditional methods for screening diuretic drugs are mostly in vivo experiments with mice, which have a long experimental cycle and are not suitable for screening massive compounds. As we know, the generation and excretion of urine involve two processes: glomerular filtration and tubular reabsorption. Reabsorption refers to the process in which the renal tubular epithelial cells transport water and certain solutes from the tubular fluid (urine) partially or entirely back into the bloodstream. Then, 99% of the water in the original urine filtered by the glomerulus is reabsorbed, and the transport of Na^+ and Cl^− plays an important role in this process. Thiazide and furosemide diuretics exert their diuretic effects by inhibiting the transport of Na^+ and Cl^−, which affects the tubular reabsorption of the original urine. Based on this principle, we established a new type of cell screening model for diuretic active drugs. Madin–Darby canine kidney (MDCK) cells were inoculated into a Transwell chamber to simulate the renal tubules. This cell model could transport and absorb external NaCl, simulating the reabsorption phenomenon. […] The effectiveness of this model was confirmed by the validation of hydrochlorothiazide, which is a commercially available diuretic drug and could inhibit the transport of Na^+ and Cl^− in renal tubules.
(§4) Generally, the transport of Na^+ and Cl^− plays an important role in glomerular filtration and tubular reabsorption. […] For example, inhibition rates of transport of 6a and 6c were over 30%, and had better inhibitory ability than barbatic acid. […] When ethyl, propyl, and benzyl were substituted on R^1, the introduction of any group could not enhance the inhibitory activity of barbatic acid, such as 6h–u and 6j′–6p′.
(§5) Log-phase MDCK cells were seeded in the upper chambers of Transwell plates (4 × 10^4 cells/well), and 800 µL of complete culture medium was added to the lower chambers. After 24 h of incubation at 37 °C, the electrical resistance of the upper chamber cells was measured one by one (R = (Rcell − Rblank) × 0.04π). When the electrical resistance of the upper chamber cells reached ≥300 Ω cm^2, the upper chamber medium was removed and replaced with the drug solution. The blank group (given normal saline), the experimental group (1, 6a–6p′, 100 μmol/L), and the hydrochlorothiazide group (100 μmol/L) were set, and each well was treated with 100 µL of the corresponding solution. The cells were then further incubated for 24 h. After that, the upper and lower chamber fluids were removed, and 200 µL of NaCl solution (15 mg/mL) was added to the upper chamber, while 800 µL of DMEM was added to the lower chamber for continued incubation. At 0.5, 1, 2, and 3 h, 50 µL of the lower chamber fluid was taken and the OD values were measured using Na^+ and Cl^− detection kits. The transport inhibition rate (%) was calculated as follows: transport inhibition rate (%) = (ODblank − ODexperimental)/ODblank × 100%.

[5] = tested on: Cl^− transport, MDCK cells; experiment: In vitro diuretic activity: Cl^− transport inhibition, Transwell chamber seeded with MDCK cells; type: cell-based, canine; settings: Canis lupus familiaris; 100 μmol/L, MDCK cells in Transwell; mean ± SD of three replicates; negative = promotion; read-out: Transport Inhibition Rate (%) Cl^−
Excerpt: as §3, §4, §5

Row | SMILES | inhibition at 100 µM [1] [%] | inhibition at 100 µM [2] [%] | C2O4^2− transport inhibition activity at different time periods ([3]; 1, 2, and 3 h (Figure 4)) | inhibition at 100 µM [3] [%] | inhibition at 100 µM [4] [%] | melting point [°C] | inhibition at 100 µM [5] [%] | Transport Inhibition Rate (%) Na^+ [4] [%]
1 | CCOc1cc(C)c(C(=O)Oc2cc(C)c(C(=O)OCC#N)c(O)c2C)c(O)c1C [Compound 6m, 4-((cyanomethoxy)carbonyl)-3-hydroxy-2,5-dimethylphenyl 4-ethoxy-2-hydroxy-3,6-dimethylbenzoate] | < 0 | 2.57 ± 0.1 | very strong and continual inhibitory activities | 61 ± 2.75 | -2.99 ± 6 | 160 to 163 | -29.3 ± 1.75 | –
2 | CCOc1cc(C)c(C(=O)Oc2cc(C)c(C(=O)OCc3ccccc3)c(O)c2C)c(O)c1C [Compound 6n, benzyl 4-(4-ethoxy-2-hydroxy-3,6-dimethylbenzoyloxy)-2-hydroxy-3,6-dimethylbenzoate] | 0.36 ± 0.8 | -2.13 ± 0.3 | – | 0.11 ± 0.7 | -3.98 ± 0.15 | 129 to 131 | -4.47 ± 0.2 | –
3 | CCCOc1cc(C)c(C(=O)Oc2cc(C)c(C(=O)OC)c(O)c2C)c(O)c1C [Compound 6o, 3-hydroxy-4-(methoxycarbonyl)-2,5-dimethylphenyl 2-hydroxy-3,6-dimethyl-4-propoxybenzoate] | < 0 | 4.43 ± 0.13 | – | 5.6 ± 3.85 | -2.68 ± 0.45 | 110 to 113 | -2.8 ± 1.2 | –
4 | CCCOc1cc(C)c(C(=O)Oc2cc(C)c(C(=O)OCC)c(O)c2C)c(O)c1C [Compound 6p, 4-(ethoxycarbonyl)-3-hydroxy-2,5-dimethylphenyl 2-hydroxy-3,6-dimethyl-4-propoxybenzoate] | < 0 | 4.79 ± 0.46 | – | 4.29 ± 0.24 | -12.2 ± 0.45 | 160 to 163 | -18.38 ± 0.15 | –
5 | CCCOC(=O)c1c(C)cc(OC(=O)c2c(C)cc(OCCC)c(C)c2O)c(C)c1O [Compound 6q, 3-hydroxy-2,5-dimethyl-4-(propoxycarbonyl)phenyl 2-hydroxy-3,6-dimethyl-4-propoxybenzoate] | < 0 | 4.61 ± 0.32 | – | -26 ± 4.17 | 9.39 ± 0.25 | 126 to 130 | 11.6 ± 2.2 | –
6 | C=CCOC(=O)c1c(C)cc(OC(=O)c2c(C)cc(OCCC)c(C)c2O)c(C)c1O [Compound 6r, allyl 2-hydroxy-4-(2-hydroxy-3,6-dimethyl-4-propoxybenzoyloxy)-3,6-dimethylbenzoate] | < 0 | 5.85 ± 0.36 | – | 9.67 ± 4.6 | 1.14 ± 1.25 | 98 to 111 | -10.3 ± 1.4 | –
7 | CCCOc1cc(C)c(C(=O)Oc2cc(C)c(C(=O)OCC#N)c(O)c2C)c(O)c1C [Compound 6s, 4-((cyanomethoxy)carbonyl)-3-hydroxy-2,5-dimethylphenyl 2-hydroxy-3,6-dimethyl-4-propoxybenzoate] | < 0 | -1.74 ± 0.12 | – | 15.7 ± 1.13 | -27.9 ± 0.5 | 135 to 138 | -6.21 ± 0.3 | –
8 | CCCOc1cc(C)c(C(=O)Oc2cc(C)c(C(=O)OC(C)C)c(O)c2C)c(O)c1C [Compound 6t, 3-hydroxy-4-(isopropoxycarbonyl)-2,5-dimethylphenyl 2-hydroxy-3,6-dimethyl-4-propoxybenzoate] | 1.42 | -1.74 ± 0.29 | – | 11.9 ± 5.83 | -37.6 ± 0.55 | 112 to 115 | -44.1 ± 3.5 | –
9 | CCCOc1cc(C)c(C(=O)Oc2cc(C)c(C(=O)OCc3ccccc3)c(O)c2C)c(O)c1C [Compound 6u, benzyl 2-hydroxy-4-(2-hydroxy-3,6-dimethyl-4-propoxybenzoyloxy)-3,6-dimethylbenzoate] | < 0 | 0.77 ± 0.09 | – | 22.3 ± 5.04 | 6.31 ± 2.35 | 111 to 114 | -15.9 ± 0.55 | –
10 | COC(=O)c1c(C)cc(OC(=O)c2c(C)cc(OC(C)C)c(C)c2O)c(C)c1O [Compound 6v, 3-hydroxy-4-(methoxycarbonyl)-2,5-dimethylphenyl 2-hydroxy-4-isopropoxy-3,6-dimethylbenzoate] | < 0 | 0.19 ± 0.29 | – | -17.9 ± 1.35 | -9.43 ± 0.75 | 60 to 63 | -13.55 ± 0.1 | –
11 | CCOC(=O)c1c(C)cc(OC(=O)c2c(C)cc(OC(C)C)c(C)c2O)c(C)c1O [Compound 6w, 4-(ethoxycarbonyl)-3-hydroxy-2,5-dimethylphenyl 2-hydroxy-4-isopropoxy-3,6-dimethylbenzoate] | 0.7 ± 0.3 | 1.55 ± 0.11 | – | 19 ± 2.64 | > 30 | 62 to 65 | -80.4 ± 1.2 | 33.11 ± 0.55
12 | CCCOC(=O)c1c(C)cc(OC(=O)c2c(C)cc(OC(C)C)c(C)c2O)c(C)c1O [Compound 6x, 3-hydroxy-2,5-dimethyl-4-(propoxycarbonyl)phenyl 2-hydroxy-4-isopropoxy-3,6-dimethylbenzoate] | < 0 | 2.74 ± 0.22 | – | -5.42 ± 2.83 | -1.11 ± 1.75 | 117 to 120 | -1.92 ± 0.25 | –
13 | Cc1cc(OC(=O)c2c(C)cc(OC(C)C)c(C)c2O)c(C)c(O)c1C(=O)OC(C)C [Compound 6y, 3-hydroxy-4-(isopropoxycarbonyl)-2,5-dimethylphenyl 2-hydroxy-4-isopropoxy-3,6-dimethylbenzoate] | < 0 | 3.47 ± 0.3 | – | -26.3 ± 5.41 | 29.4 ± 1.85 | 140 to 143 | -43.3 ± 3.25 | –
